{"source": "patent US11730769B2", "about": "“Compositions and methods for Williams Syndrome (WS) therapy” (MASSACHUSETTS INSTITUTE OF TECHNOLOGY, priority 2017, dated 2023)", "key": {"[1]": {"settings": "in vivo; cited from earlier work"}, "[2]": {"biological_target": "P/Q-type calcium channels (Homo sapiens, UniProt O00555)", "sequence (O00555 whole entry)": "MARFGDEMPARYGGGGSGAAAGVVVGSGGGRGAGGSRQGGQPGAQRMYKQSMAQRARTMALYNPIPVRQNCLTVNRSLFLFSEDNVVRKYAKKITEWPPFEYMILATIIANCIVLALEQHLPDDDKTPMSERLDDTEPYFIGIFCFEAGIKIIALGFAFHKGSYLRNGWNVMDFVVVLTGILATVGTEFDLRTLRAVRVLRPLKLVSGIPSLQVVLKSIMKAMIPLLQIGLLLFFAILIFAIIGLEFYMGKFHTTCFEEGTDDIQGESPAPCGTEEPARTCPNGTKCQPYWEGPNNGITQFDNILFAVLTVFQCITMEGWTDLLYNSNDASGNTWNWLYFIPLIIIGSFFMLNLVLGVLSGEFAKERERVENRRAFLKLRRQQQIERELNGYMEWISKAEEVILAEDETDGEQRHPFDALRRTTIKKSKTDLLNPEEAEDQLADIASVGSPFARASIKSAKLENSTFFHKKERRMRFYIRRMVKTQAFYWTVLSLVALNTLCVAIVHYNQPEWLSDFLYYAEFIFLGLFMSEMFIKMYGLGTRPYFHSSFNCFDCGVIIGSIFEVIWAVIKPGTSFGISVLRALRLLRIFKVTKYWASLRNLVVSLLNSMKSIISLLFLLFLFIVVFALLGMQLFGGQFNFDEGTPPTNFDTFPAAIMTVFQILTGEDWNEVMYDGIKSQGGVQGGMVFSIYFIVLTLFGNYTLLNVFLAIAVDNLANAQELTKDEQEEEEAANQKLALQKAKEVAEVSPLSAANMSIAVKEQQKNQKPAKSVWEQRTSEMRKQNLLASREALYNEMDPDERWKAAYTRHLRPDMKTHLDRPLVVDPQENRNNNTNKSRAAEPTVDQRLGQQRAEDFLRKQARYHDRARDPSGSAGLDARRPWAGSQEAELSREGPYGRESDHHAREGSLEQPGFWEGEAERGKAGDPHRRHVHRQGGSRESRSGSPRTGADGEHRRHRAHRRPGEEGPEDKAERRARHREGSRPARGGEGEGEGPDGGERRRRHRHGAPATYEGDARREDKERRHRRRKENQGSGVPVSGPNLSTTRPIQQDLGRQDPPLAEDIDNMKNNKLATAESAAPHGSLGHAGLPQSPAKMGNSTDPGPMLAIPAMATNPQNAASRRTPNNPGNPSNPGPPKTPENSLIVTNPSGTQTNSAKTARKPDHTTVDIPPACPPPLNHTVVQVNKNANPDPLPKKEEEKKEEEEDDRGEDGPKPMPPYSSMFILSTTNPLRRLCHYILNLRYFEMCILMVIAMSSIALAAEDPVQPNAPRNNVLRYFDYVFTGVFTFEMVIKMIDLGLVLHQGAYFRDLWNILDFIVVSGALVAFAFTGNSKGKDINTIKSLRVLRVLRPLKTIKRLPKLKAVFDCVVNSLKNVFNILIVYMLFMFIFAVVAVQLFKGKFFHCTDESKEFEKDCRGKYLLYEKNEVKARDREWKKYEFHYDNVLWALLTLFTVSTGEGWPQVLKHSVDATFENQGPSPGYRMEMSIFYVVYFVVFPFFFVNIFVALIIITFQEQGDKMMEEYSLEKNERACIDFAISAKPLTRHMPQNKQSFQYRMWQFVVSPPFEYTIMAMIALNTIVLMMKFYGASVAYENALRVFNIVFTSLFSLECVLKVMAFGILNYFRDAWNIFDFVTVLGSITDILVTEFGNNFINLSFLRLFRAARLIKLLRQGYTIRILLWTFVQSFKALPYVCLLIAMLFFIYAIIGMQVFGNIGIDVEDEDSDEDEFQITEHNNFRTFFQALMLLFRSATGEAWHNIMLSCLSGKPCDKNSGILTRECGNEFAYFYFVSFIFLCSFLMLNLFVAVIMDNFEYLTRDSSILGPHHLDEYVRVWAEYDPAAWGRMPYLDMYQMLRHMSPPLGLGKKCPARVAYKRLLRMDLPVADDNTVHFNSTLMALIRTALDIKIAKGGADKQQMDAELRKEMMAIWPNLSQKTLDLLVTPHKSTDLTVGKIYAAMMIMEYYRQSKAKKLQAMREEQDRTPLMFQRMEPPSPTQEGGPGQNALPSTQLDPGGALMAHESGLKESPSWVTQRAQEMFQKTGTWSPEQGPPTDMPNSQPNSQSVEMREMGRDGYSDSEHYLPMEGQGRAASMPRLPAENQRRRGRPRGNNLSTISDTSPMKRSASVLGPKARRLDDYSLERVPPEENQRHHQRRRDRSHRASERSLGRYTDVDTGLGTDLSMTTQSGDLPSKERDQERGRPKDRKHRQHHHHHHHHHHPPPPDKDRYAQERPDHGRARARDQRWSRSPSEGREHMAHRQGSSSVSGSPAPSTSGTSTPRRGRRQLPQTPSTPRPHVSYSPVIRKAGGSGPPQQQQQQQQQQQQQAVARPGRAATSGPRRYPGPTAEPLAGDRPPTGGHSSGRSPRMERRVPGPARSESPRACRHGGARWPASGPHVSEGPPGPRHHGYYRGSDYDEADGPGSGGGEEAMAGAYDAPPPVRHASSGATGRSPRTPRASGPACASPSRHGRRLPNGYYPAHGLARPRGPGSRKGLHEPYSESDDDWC", "sequence (P54284 whole entry partner)": "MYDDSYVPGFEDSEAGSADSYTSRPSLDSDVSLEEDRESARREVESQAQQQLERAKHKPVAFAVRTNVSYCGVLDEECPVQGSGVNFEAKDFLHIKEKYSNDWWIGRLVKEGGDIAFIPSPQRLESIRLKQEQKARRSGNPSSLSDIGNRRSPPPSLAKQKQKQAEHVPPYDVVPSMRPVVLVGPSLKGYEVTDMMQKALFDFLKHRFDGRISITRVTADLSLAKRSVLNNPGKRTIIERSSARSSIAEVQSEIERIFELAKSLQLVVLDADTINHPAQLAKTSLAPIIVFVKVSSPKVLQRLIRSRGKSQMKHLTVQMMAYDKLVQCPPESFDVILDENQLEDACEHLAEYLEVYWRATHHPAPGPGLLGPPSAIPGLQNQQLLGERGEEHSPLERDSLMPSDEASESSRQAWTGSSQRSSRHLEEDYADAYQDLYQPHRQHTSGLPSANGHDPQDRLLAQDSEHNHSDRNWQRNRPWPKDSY", "sequence (P54289 25-946 partner limits assumed)": "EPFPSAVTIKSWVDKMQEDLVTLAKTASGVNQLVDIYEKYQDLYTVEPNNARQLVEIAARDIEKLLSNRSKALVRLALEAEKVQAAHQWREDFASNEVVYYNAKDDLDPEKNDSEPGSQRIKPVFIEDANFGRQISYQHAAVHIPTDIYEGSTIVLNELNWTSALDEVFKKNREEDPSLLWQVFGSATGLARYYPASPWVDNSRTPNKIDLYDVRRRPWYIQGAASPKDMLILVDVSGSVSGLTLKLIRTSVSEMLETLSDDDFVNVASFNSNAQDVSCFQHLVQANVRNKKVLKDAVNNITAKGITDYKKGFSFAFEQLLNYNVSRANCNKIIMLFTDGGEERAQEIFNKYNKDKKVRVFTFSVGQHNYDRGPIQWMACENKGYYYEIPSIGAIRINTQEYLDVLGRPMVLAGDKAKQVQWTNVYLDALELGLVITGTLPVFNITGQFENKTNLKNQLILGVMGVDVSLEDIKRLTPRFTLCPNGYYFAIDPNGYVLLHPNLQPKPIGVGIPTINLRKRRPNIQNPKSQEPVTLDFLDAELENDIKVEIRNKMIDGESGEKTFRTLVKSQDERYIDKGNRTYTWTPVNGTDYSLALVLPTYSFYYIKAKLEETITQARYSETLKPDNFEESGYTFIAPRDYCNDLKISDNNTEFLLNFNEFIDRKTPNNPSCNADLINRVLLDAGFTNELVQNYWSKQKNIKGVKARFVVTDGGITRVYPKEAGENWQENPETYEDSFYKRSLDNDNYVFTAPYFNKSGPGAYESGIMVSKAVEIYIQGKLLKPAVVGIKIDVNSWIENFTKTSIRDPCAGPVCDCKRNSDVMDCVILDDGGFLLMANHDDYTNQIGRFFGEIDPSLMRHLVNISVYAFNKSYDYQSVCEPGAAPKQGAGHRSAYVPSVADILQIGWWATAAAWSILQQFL", "sequence (P54289 947-1103 partner limits assumed)": "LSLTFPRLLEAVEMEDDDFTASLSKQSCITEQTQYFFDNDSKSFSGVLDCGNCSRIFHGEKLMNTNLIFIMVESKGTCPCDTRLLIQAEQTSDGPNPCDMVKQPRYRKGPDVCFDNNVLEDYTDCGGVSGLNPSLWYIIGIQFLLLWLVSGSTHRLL", "settings": "read-out: EC50 for activation of P/Q-type calcium channels; cited from earlier work"}, "L-type calcium channels": {"tested_on": "L-type calcium channels", "settings": "read-out: EC50 for activation of L-type calcium channels; cited from earlier work"}, "N-type calcium channels": {"biological_target": "N-type calcium channels (Homo sapiens, UniProt Q00975)", "settings": "read-out: EC50 for activation of N-type calcium channels; cited from earlier work"}, "Gtf2i cKO mice [3]": {"tested_on": "Gtf2i cKO mice", "test": "Number of myelinating oligodendrocytes (immunofluorescence)", "type": "in vivo", "settings": "clemastine 10 mg/kg daily by gastric gavage for 14 days", "procedure": "Basic immunofluorescence procedure was used as previously described (68). Mice were deeply anesthetized with isoflurane and transcardially perfused with 15 ml ice-cold PBS solution followed by 15 ml fresh ice-cold 4% paraformaldehyde (PFA) in PBS. Brains were dissected and kept in 4% PFA overnight at 4° C. and then sectioned at 100 μm thickness by vibratome (Leica). Floating brain slices were washed 3 times, 5 min each, with PBS and permeabilized with 1.2% Triton X-100 in PBS for 15 min at room temperature. Slices were then washed 3 times, 5 min each, followed by blocking with 5% normal goat serum, 2% BSA, 0.2% Triton X-100 in PBS for 1 h at room temperature. Primary antibodies diluted in blocking buffer were applied to sections overnight at 4° C. […]\nTo quantify cellular properties in the cortex, images were taken by an experimenter blinded to genotypes with a 10× magnification at the motor cortex area at bregma 0.5 mm. […] The midline of the CC was imaged at the same bregma, using a 40× magnification, and the whole depth of the CC was imaged by taking 10 images as part of a Z-stack serial imaging, and then all images were stacked together to a single image which was then analyzed for quantification. Cell numbers were quantified blindly with automation using ImageJ. […] The pixel intensity of H3ac and H3K9me3 was quantified using ImageJ, as was previously described (37). […]"}, "socially isolated mice": {"tested_on": "socially isolated mice", "settings": "cited from earlier work"}, "[4]": {"settings": "phosphate salt; does not require refrigeration; cited from earlier work"}, "[5]": {"settings": "cited from earlier work"}, "rats": {"tested_on": "rats", "settings": "cited from earlier work"}, "[6]": {"settings": "cited from earlier work", "remark": "listed apart in the source"}, "Gtf2i cKO mice [7]": {"tested_on": "Gtf2i cKO mice", "test": "Three-chamber social preference test", "type": "in vivo", "settings": "acute 4-AP 1 mg/kg i.p., three hours post administration", "method": "Stranger mice were wildtype S129 Sv males (Jackson Laboratory) with matched age and body weight to test mice. Stranger mice were habituated by placing them inside an inverted wire cup for 30 min, two sessions per day for three consecutive days before tests. Each stranger mouse was used a maximum of two times per day. The social test apparatus was made of a clear Plexiglas box (65 cm (L)×44 cm (W)×30 cm (H)) with a removable floor and partitions dividing the box into left, center, and right chambers. The center chamber (21 cm×22 cm) was half the width of the left and right chambers (each is 21 cm×44 cm). These three chambers were interconnected with 5 cm openings between each chamber that could be closed or opened manually with a lever-operated door. The inverted wire cups containing the stranger mice were cylindrical, 10 cm in height, with a bottom diameter of 10 cm and with metal bars spaced 0.8 cm apart. A weighted cup was placed on top of the inverted wire cups to prevent the test mice from climbing onto the wire cup. […] Then, experimenter blinded to genotypes analyzed for timespent in close proximity to the stranger mouse or object was analyzed using the Noldus Ethovison XT software. Social preference index was calculated as follows: (time in close interaction with stranger)/(time in close interaction with object). […]"}, "Gtf2i cKO mice [8]": {"tested_on": "Gtf2i cKO mice", "test": "Horizontal ladder walking test", "type": "in vivo", "settings": "acute 4-AP 1 mg/kg i.p., three hours post administration", "method": "Mice were tested for their ability to walk on a horizontal ladder with irregularly spaced rungs, following the procedure described previously (44). Animals were trained to cross the ladder until their performance achieved the plateau (with a forelimb error of 20% or less). The irregular pattern was changed from trial to trial during training. All trials were video recorded with Hotshot e64 and paw placement was analyzed. The paw placement on rungs were categorized as Hit (platar contact and digits closure), Miss (paw falls between rungs) and Slip (imprecise contact with one or few digits). Experimenter was blinded to genotypes.\nMice were habituated to needle injections (i.p.) for three days before behavioral tests, by two i.p. injections of 200 μL of saline administered per day. […] All behavioral tests were therefore accomplished three hours post systemic administration. Saline-injected mice in each genotype (Control or cKO mice) were referred as the baseline group for the treatment group, which was injected with 4-AP. Experimenter was blinded to genotypes."}, "[9]": {"tested_on": "chronically injured spinal cord of guinea pigs", "settings": "cited from earlier work"}, "Gtf2i cKO mice [10]": {"tested_on": "Gtf2i cKO mice", "test": "Intra-cortical microstimulation (ICMS) and EMG recording (corticospinal output)", "type": "in vivo", "settings": "acute 4-AP 2 mg/kg i.p., test 30 to 60 minutes after injection; cKO and control mice", "method": "ICMS and EMG recording protocol was adopted from previous studies (71, 72). Each animal was anesthetized with ketamine-xylazine (100 mg/kg ketamine, 10 mg/kg xylazine, i.p.). Anesthesia level was maintained at a steady level to that animal was unresponsive to toe pinch while muscle tone was present.\nA digital stereotaxic frame was used to mount the animal's head and guide stimulation electrode (stainless steel, 0.5 MOhm; World Precision Instruments) over an array of motor cortical sites (0.9 mm caudal and 0.6 mm rostral to Bregma, 0.9 mm to 1.8 mm lateral to midline, with 300 μm spacing between sites). Stimulation electrode was inserted into the cortex at 500 μm depth, targeting layer V motor neurons. The exposed brain area was immersed with silicon oil to avoid dehydration. Electrical stimulation (biphasic, 0.2 ms pulse width, 333 Hz, 45 ms) was adjusted between 100 to 300 μA and located at the position that has the lowest threshold to trigger EMG signal. Stimulation intensity of two folds of threshold was then used for EMG recording and analysis. To perform EMG recording, an incision was made on hindlimb to expose the muscles while fascia remained intact. […] EMG signals were acquired using differential AC amplifier (1700, A-M Systems, WA) with 10-1000 Hz bandpass filter, sampled at 5 kHz using a digitizer (Digidata 1440A, Axon Instruments), and analyzed by pClamp Software. […]"}, "[11]": {"tested_on": "normal adult myelinated axons", "settings": "cited from earlier work"}, "[12]": {"settings": "patients with MS, all studies; cited from earlier work"}, "Shaker channels": {"tested_on": "Shaker channels", "settings": "at concentration of 1 mM; cited from earlier work"}, "[13]": {"settings": "oral, non-sustained release, animals; cited from earlier work"}, "[14]": {"settings": "cited from earlier work", "remark": "listed apart in the source"}, "Gtf2i cKO mice [15]": {"tested_on": "Gtf2i cKO mice", "test": "Evoked field potential recordings in corpus callosum", "type": "in vivo", "settings": "acute 4-AP administration", "method": "In vivo evoked field potential recording in corpus callosum was referenced to that from in vitro studies (69, 70). Animals were anesthetized with urethane (1,000 mg/kg) and placed on a stereotaxic instrument. Body temperature was maintained by thermostat at 37.5-38° C. Craniotomy was performed and dura was kept intact. Stainless steel stimulation electrode (300˜500 kOhm, WPI) was positioned in corpus callosum in left hemisphere (1.5 mm posterior to Bregma, 1 mm lateral from midline, 1,000˜1,300 μm beneath cortical surface), and tungsten recording electrode (2˜3 MOhm, FHC) was positioned in corpus callosum at same coronal plane in right hemisphere (1.5 mm posterior to Bregma, 1 mm from midline, 1,000˜1,300 μm beneath cortical surface). Electrical stimulation (0˜200 uA, 0.2 ms pulse width, 0.2 Hz) was delivered while both positions of stimulation and recording electrodes were slightly adjusted to optimize signal. Signals were filtered at 0.1-3,000 Hz and gained at 1,000 times (Model 1700, A-M Systems), digitized and sampled at 10,000 Hz (Digidata 1440A, Molecular Devices), and analyzed offline (Clampfit). […] Response amplitude was determined by measuring the vertical distance from negative peak to the tangent joining preceding and following positivities. […]"}}, "note": "Entries after “also recorded” stand apart in the source; their conditions may differ. Where two headings read alike, the source gives them in different places."}
{"compound": "CC[N+](CC)(CC)CC.[Br-]", "note": "[TEA, Tetraethylammonium]", "values": [{"measurement": "Oral activity", "setting": "[1]", "result": "not orally active"}]}
{"compound": "CCCn1cnc2c(NCc3ccc(C)s3)nc(N[C@H](CC)CO)nc21", "note": "[GV-58]", "values": [{"measurement": "EC50", "setting": "[2]", "result": 9.9, "unit": "µM"}, {"measurement": "EC50", "setting": "L-type calcium channels", "result": "> 100", "unit": "µM"}, {"measurement": "EC50", "setting": "N-type calcium channels", "result": 6.8, "unit": "µM"}]}
{"compound": "CN1CCCC1CCOC(C)(c1ccccc1)c1ccc(Cl)cc1", "note": "(stereo not shown) [Clemastine]", "values": [{"measurement": "Number of myelinating oligodendrocytes (mOLs) in cortex and CC midline", "setting": "Gtf2i cKO mice [3]", "result": "normalized"}, {"measurement": "Number of myelinating oligodendrocytes (mOLs) in cortex and CC midline", "setting": "Gtf2i cKO mice [3]; listed as clemastine", "result": "significantly increased and normalized to control levels"}, {"measurement": "Impaired myelination", "setting": "socially isolated mice; oral clemastine, prolonged social isolation", "result": "rescued"}, {"measurement": "Social avoidance behavior", "setting": "socially isolated mice; oral, 2 weeks, adult mice following prolonged social isolation", "result": "successfully reverse social avoidance behavior"}]}
{"compound": "Nc1ccncc1N.O=P(O)(O)O", "note": "[amifampridine phosphate, 4-aminopyridine-3-ylammonium dihydrogen phosphate]", "values": [{"measurement": "Stability", "setting": "[4]", "result": "stable"}, {"measurement": "Solubility in water", "setting": "[5]; phosphate salt", "result": "readily soluble in water"}]}
{"compound": "Opicinumab: fully human monoclonal antibody, LINGO-1 protein antagonist (Anti-Lingo-1)", "values": [{"measurement": "Remyelination", "setting": "rats", "result": 90, "unit": "%"}]}
{"compound": "Nc1ccncc1N.O=P(O)(O)O", "note": "[Amifampridine, pyridine-3,4-diamine]", "values": [{"measurement": "Time to maximum concentrations in blood plasma", "setting": "[6]; 91 healthy subjects, after a fatty meal", "result": "1.3 (±0.9) hours"}, {"measurement": "Time to maximum concentrations in blood plasma", "setting": "[6]; 91 healthy subjects, without food", "result": "0.6 (±0.25) hours"}, {"measurement": "Area under the curve (AUC)", "setting": "[6]; 91 healthy subjects", "result": "117 ± 77", "unit": "ng·h/mL"}, {"measurement": "Biological half-life", "setting": "[6]; 91 healthy subjects", "result": "2.5±0.7", "unit": "hrs"}, {"measurement": "AUC increase in slow metabolizers as compared to fast metabolizers", "setting": "[6]; N-acetyltransferase activity", "result": "up to 9 fold"}, {"measurement": "Eliminated via kidneys and urine as N-acetylamifampridine", "setting": "[6]; human, in vivo", "result": "74-81%"}, {"measurement": "Eliminated via kidneys and urine in unchanged form", "setting": "[6]; human, in vivo", "result": 19, "unit": "%"}, {"measurement": "Absorbed from the gut", "setting": "[6]; oral", "result": "93-100%"}, {"measurement": "Solubility in water", "setting": "[5]; 20° C.", "result": 25, "unit": "mg/mL"}, {"measurement": "Solubility in diethyl ether", "setting": "[5]", "result": "only slightly"}, {"measurement": "Solubility in methanol, ethanol and hot water", "setting": "[5]", "result": "readily soluble"}]}
{"compound": "Nc1ccncc1", "note": "[4-AP, 4-aminopyridine]", "values": [{"measurement": "Social preference (index), three-chamber test", "setting": "Gtf2i cKO mice [7]", "result": "normalized social preference; also recorded: decreased and normalized to control levels"}, {"measurement": "Fine motor skills, horizontal irregular ladder walking, forelimb and hindlimb", "setting": "Gtf2i cKO mice [8]", "result": "normalized fine motor skills; also recorded: rescued"}, {"measurement": "Most effective concentration", "setting": "[9]", "result": "about 10 μM"}, {"measurement": "EMG peak amplitude (cortico-spinal tract)", "setting": "Gtf2i cKO mice [10]", "result": "increased significantly; also recorded: increased following 4-AP acute administration"}, {"measurement": "EMG response latency (cortico-spinal tract)", "setting": "Gtf2i cKO mice [10]", "result": "significantly shortened; also recorded: significantly decreased and normalized to control levels"}, {"measurement": "Concentrations causing gradual depolarization of the axon resting potential", "setting": "[11]", "result": "above 1 mM"}, {"measurement": "Concentrations at which the action potential shows little or no sensitivity", "setting": "[11]; normal adult myelinated axons", "result": "below 100 μM"}, {"measurement": "Incidence of adverse effects", "setting": "[12]", "result": "less than 5%"}, {"measurement": "Inhibition of Shaker channels", "setting": "Shaker channels", "result": "selectively and reversibly inhibits"}, {"measurement": "Time of peak plasma concentrations", "setting": "[13]", "result": "within one hour"}, {"measurement": "Cmax", "setting": "[14]; 10 mg oral solution", "result": 42.7, "unit": "ng/mL"}, {"measurement": "Absorption from the gastrointestinal tract", "setting": "[14]; oral", "result": "completely absorbed"}, {"measurement": "Absolute bioavailability", "setting": "[14]; two formulations of IR tablets", "result": 95, "unit": "%"}, {"measurement": "Peak amplitude of evoked potential in corpus callosum", "setting": "Gtf2i cKO mice [15]", "result": "increased following 4-AP acute administration and normalized to control levels"}, {"measurement": "Peak latency of evoked potential in corpus callosum", "setting": "Gtf2i cKO mice [15]", "result": "significantly decreased and normalized to control levels"}]}
